The test system of test [1] is MCF-7 cells (with PI3Kα E545K mutation). Briefly: In vitro inhibition of MCF-7 cell proliferation (CellTiter-Lumi). In kind it is cell-based. The gist of the method:
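Growth IC50 derived from ATP luminescence (CellTiter-Lumi) after 144 h exposure of MCF-7 cells carrying PI3Kα E545K, plated 2000 cells/well and dosed with serial dilutions one day after seeding.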

In test [2] the test system is HCC1954 cells (with PI3Kα H1047R mutation). Briefly: In vitro inhibition of HCC1954 cell proliferation (CellTiter-Lumi). In kind it is cell-based. On the procedure: Assay for In Vitro Inhibition of HCC1954 Cell Proliferation by Compounds of the Present Disclosure
The growth of the cells was evaluated, and the IC50 for the inhibition of cell growth by the compounds was calculated.

Where [3] appears, read: Homo sapiens, MCF7, 144 h, class symbols, read-out: Inhibitory activity against MCF-7 cells (IC50), class symbols.
Setting [4] is: Homo sapiens, HCC1954, 144 h, HCC1954 cells, 144 h, CellTiter-Lumi, class symbols, read-out: Inhibitory activity against HCC1954 cells (IC50), class symbols.
Where [5] appears, read: 144 h, numeric values, read-out: Inhibitory activity against MCF-7 cells (IC50).
Where [6] appears, read: HCC1954 cells, 144 h, CellTiter-Lumi, numeric values, read-out: Inhibitory activity against HCC1954 cells (IC50).
Setting [7] is: Homo sapiens, HCC1954, 144 h, read-out: Inhibitory activity against HCC1954 cells (IC50), class symbols.

Usually IC50 stands for the point on the concentration scale where inhibition reaches its midpoint.

Where two headings read alike, the source gives them in different places.

Turning to `CC(C)(C=C(C#N)C(=O)Nc1ccc(N2CC(N3CCN(c4ccc5c(c4)-c4nc(N6C(=O)OC[C@H]6C(F)F)cn4CCO5)CC3)C2)cc1)N1CC2(CCOCC2)C1` [Compound 313], the IC50 in test [1] (setting [3]) and in test [2] (setting [4]) was below 50 nM throughout.
On to `CC(C)(C=C(C#N)C(=O)Nc1ccc(N2CC(N3CCN(c4ccc5c(c4)-c4nc(N6C(=O)OC[C@H]6C(F)F)cn4CCO5)CC3)C2)cc1)N1CC(C2COC2)C1` [Compound 314], for which the IC50 in test [1] (setting [3]) and in test [2] (setting [4]) was below 50 nM in each case.
Turning to `CC(C)(C)C=C(C#N)C(=O)Nc1ccc(N2CC(N3CCN(c4cc5c(cc4F)OCCn4cc(N6C(=O)OC[C@H]6C(F)F)nc4-5)CC3)C2)cc1` [Compound 315], the half-maximal inhibitory concentration (IC50) in test [1] (setting [3]) and in test [2] (setting [4]) was below 50 nM in each case.
With `CC(C)(C)C=C(C#N)C(=O)Nc1ccc(N2CC(N3CCN(c4cc(F)c5c(c4)-c4nc(N6C(=O)OC[C@H]6C(F)F)cn4CCO5)CC3)C2)cc1` [Compound 316], the IC50 in test [1] (setting [3]) and in test [2] (setting [4]) was below 50 nM each time.
`CC(C)(C)C=C(C#N)C(=O)Nc1ccc(N2CC(N3CCN(c4cc5c(cc4O)OCCn4cc(N6C(=O)OC[C@H]6C(F)F)nc4-5)CC3)C2)cc1` [Compound 317]: the IC50 in test [1] (setting [3]) and in test [2] (setting [4]) was below 50 nM in each case.
Consider `COc1cc2c(cc1N1CCN(C3CN(c4ccc(NC(=O)C(C#N)=CC(C)(C)C)cc4)C3)CC1)-c1nc(N3C(=O)OC[C@H]3C(F)F)cn1CCO2` [Compound 318], for which the IC50 in test [1] (setting [3]) and in test [2] (setting [4]) was below 50 nM in each case.
Take `CNc1cc2c(cc1N1CCN(C3CN(c4ccc(NC(=O)C(C#N)=CC(C)(C)C)cc4)C3)CC1)-c1nc(N3C(=O)OC[C@H]3C(F)F)cn1CCO2` [Compound 319]: the IC50 in test [1] (setting [3]) and in test [2] (setting [4]) was below 50 nM each time.
Consider `Cc1cc2c(cc1N1CCN(C3CN(c4ccc(NC(=O)C(C#N)=CC(C)(C)C)cc4)C3)CC1)-c1nc(N3C(=O)OC[C@H]3C(F)F)cn1CCO2` [Compound 320], for which the IC50 in test [1] (setting [3]) and in test [2] (setting [4]) was below 50 nM each time.
With `CC(C)(C)C=C(C#N)C(=O)Nc1ccc(N2CC(N3CCN(c4ccc5c(c4)-c4nc(N6C(=O)OC[C@H]6C(F)F)c(F)n4CCO5)CC3)C2)cc1` [Compound 321], the IC50 in test [1] (setting [3]) and in test [2] (setting [4]) was below 50 nM each time.
On to `CC(C)(C)C=C(C#N)C(=O)Nc1ccc(N2CC(N3CCN(c4ccc5c(c4)-c4nc(N6C(=O)OC[C@H]6C(F)F)c(C6CC6)n4CCO5)CC3)C2)cc1` [Compound 322], for which the IC50 in test [1] (setting [3]) and in test [2] (setting [4]) was below 50 nM each time.
On to `Cc1c(N2C(=O)OC[C@H]2C(F)F)nc2n1CCOc1ccc(N3CCN(C4CN(c5ccc(NC(=O)C(C#N)=CC(C)(C)C)cc5)C4)CC3)cc1-2` [Compound 323], for which the IC50 in test [1] (setting [3]) and in test [2] (setting [4]) was below 50 nM each time.
`CC(C)(C=C(C#N)C(=O)Nc1ccc(N2CC(N3CCN(c4ccc5c(c4)-c4nc(N6C(=O)OC[C@H]6C(F)F)cn4CCO5)CC3)C2)cc1)NC(=O)OC(C)(C)C` [Compound 324A]: the IC50 in test [1] (setting [5]) and in test [2] (setting [6]) was 0.1 nM throughout.
As for `CC(C)(C=C(C#N)C(=O)Nc1ccc(N2CC(N3CCN(c4ccc5c(c4)-c4nc(N6C(=O)OC[C@H]6C(F)F)cn4CCO5)CC3)C2)cc1)NC(=O)OC(C)(C)C` [Compound 324B], the IC50 in test [1] (setting [5]) was found to be 2.6 nM; in test [2] (setting [6]), 6.2 nM.
Take `CC(=O)NC(C)(C)C=C(C#N)C(=O)Nc1ccc(N2CC(N3CCN(c4ccc5c(c4)-c4nc(N6C(=O)OC[C@H]6C(F)F)cn4CCO5)CC3)C2)cc1` [Compound 325]: the IC50 in test [1] (setting [3]) and in test [2] (setting [4]) was below 50 nM each time.
Take `CC(C)(C)OC(=O)NC1(C=C(C#N)C(=O)Nc2ccc(N3CC(N4CCN(c5ccc6c(c5)-c5nc(N7C(=O)OC[C@H]7C(F)F)cn5CCO6)CC4)C3)cc2)CC1` [Compound 326]: the half-maximal inhibitory concentration (IC50) in test [1] (setting [3]) and in test [2] (setting [4]) was below 50 nM in each case.
For the compound `CC(C)(C=C(C#N)C(=O)Nc1ccc(N2CC(N3CCN(c4ccc5c(c4)-c4nc(N6C(=O)OC[C@H]6C(F)F)cn4CCO5)CC3)C2)cc1)NS(C)(=O)=O` [Compound 327], the IC50 in test [1] (setting [3]) and in test [2] (setting [4]) was below 50 nM in each case.
As for `CC(=O)OCNC(C)(C)C=C(C#N)C(=O)Nc1ccc(N2CC(N3CCN(c4ccc5c(c4)-c4nc(N6C(=O)OC[C@H]6C(F)F)cn4CCO5)CC3)C2)cc1` [Compound 328], the IC50 in test [1] (setting [3]) and in test [2] (setting [4]) was below 50 nM throughout.
With `CC(C)(C=C(C#N)C(=O)Nc1ccc(N2CC(N3CCN(c4ccc5c(c4)-c4nc(N6C(=O)OC[C@H]6C(F)F)cn4CCO5)CC3)C2)cc1)NCOC(=O)C(C)(C)C` [Compound 329], the IC50 in test [1] (setting [3]) and in test [2] (setting [4]) was below 50 nM in each case.
For `CCOP(=O)(OCC)OCNC(C)(C)C=C(C#N)C(=O)Nc1ccc(N2CC(N3CCN(c4ccc5c(c4)-c4nc(N6C(=O)OC[C@H]6C(F)F)cn4CCO5)CC3)C2)cc1` [Compound 331], the IC50 in test [1] (setting [3]) and in test [2] (setting [7]) was below 50 nM each time.
On to `CCOP(=O)(NC(C)(C)C=C(C#N)C(=O)Nc1ccc(N2CC(N3CCN(c4ccc5c(c4)-c4nc(N6C(=O)OC[C@H]6C(F)F)cn4CCO5)CC3)C2)cc1)OCC` [Compound 332], for which the IC50 in test [1] (setting [3]) and in test [2] (setting [7]) was below 50 nM each time.
`CC(C)(C=C(C#N)C(=O)Nc1ccc(N2CC(N3CCN(c4ccc5c(c4)-c4nc(N6C(=O)OC[C@H]6C(F)F)cn4CCO5)CC3)C2)cc1)NCOP(=O)(OCOC(=O)C(C)(C)C)OCOC(=O)C(C)(C)C` [Compound 333]: the IC50 in test [1] (setting [3]) and in test [2] (setting [4]) was below 50 nM each time.
With `CC(C)OC(=O)OCOP(=O)(OCNC(C)(C)C=C(C#N)C(=O)Nc1ccc(N2CC(N3CCN(c4ccc5c(c4)-c4nc(N6C(=O)OC[C@H]6C(F)F)cn4CCO5)CC3)C2)cc1)OCOC(=O)OC(C)C` [Compound 334], the IC50 in test [1] (setting [3]) and in test [2] (setting [4]) was below 50 nM each time.
For the compound `CN(C(=O)OC(C)(C)C)C(C)(C)C=C(C#N)C(=O)Nc1ccc(N2CC(N3CCN(c4ccc5c(c4)-c4nc(N6C(=O)OC[C@H]6C(F)F)cn4CCO5)CC3)C2)cc1` [Compound 335], the IC50 in test [1] (setting [3]) and in test [2] (setting [4]) was below 50 nM each time.
Regarding `Cc1nc(-c2cn3c(n2)-c2cc(N4CCN(C5CN(c6ccc(NC(=O)C(C#N)=CC(C)(C)N)cc6)C5)CC4)ccc2OCC3)n(C(C)C)n1` [Compound 336], the IC50 in test [1] (setting [3]) and in test [2] (setting [4]) was below 50 nM in each case.
`CNC(C)(C)C=C(C#N)C(=O)Nc1ccc(N2CC(N3CCN(c4ccc5c(c4)-c4nc(-c6nc(C)nn6C(C)C)cn4CCO5)CC3)C2)cc1` [Compound 337]: the IC50 in test [1] (setting [3]) and in test [2] (setting [4]) was below 50 nM throughout.
In the case of `Cc1nc(-c2cn3c(n2)-c2cc(N4CCN(C5CN(c6ccc(NC(=O)C(C#N)=CC(C)(C)NC(=O)OC(C)(C)C)cc6)C5)CC4)ccc2OCC3)n(C(C)C)n1` [Compound 338], the IC50 in test [1] (setting [3]) and in test [2] (setting [4]) was below 50 nM throughout.
On to `Cc1nc(-c2cn3c(n2)-c2cc(N4CCN(C5CN(c6ccc(NC(=O)C(C#N)=CC(C)(C)N(C)C7COC7)cc6)C5)CC4)ccc2OCC3)n(C(C)C)n1` [Compound 339], for which the IC50 in test [1] (setting [3]) and in test [2] (setting [4]) was below 50 nM in each case.
With `Cc1nc(-c2cn3c(n2)-c2cc(N4CCN(C5CN(c6ccc(NC(=O)C(C#N)=CC(C)(C)C)cc6)C5)CC4)ccc2OCC3)n(C(C)C)n1` [Compound 340], the IC50 in test [1] (setting [3]) and in test [2] (setting [4]) was below 50 nM each time.
For `CCOP(=O)(OCC)OCOC(C)(C)C=C(C#N)C(=O)Nc1ccc(N2CC(N3CCN(c4ccc5c(c4)-c4nc(N6C(=O)OC[C@H]6C(F)F)cn4CCO5)CC3)C2)cc1` [Compound 341], the IC50 in test [1] (setting [3]) and in test [2] (setting [7]) was below 50 nM in each case.
Regarding `CCOP(=O)(OCC)OC(C)(C)C=C(C#N)C(=O)Nc1ccc(N2CC(N3CCN(c4ccc5c(c4)-c4nc(N6C(=O)OC[C@H]6C(F)F)cn4CCO5)CC3)C2)cc1` [Compound 342], the concentration for half-maximal inhibition (IC50) in test [1] (setting [3]) and in test [2] (setting [7]) was below 50 nM in each case.
`CC(C)(C=C(C#N)C(=O)Nc1ccc(N2CC(N3CCN(c4ccc5c(c4)-c4nc(N6C(=O)OC[C@H]6C(F)F)cn4CCO5)CC3)C2)cc1)OCOP(=O)(OCOC(=O)C(C)(C)C)OCOC(=O)C(C)(C)C` [Compound 343]: the IC50 in test [1] (setting [3]) and in test [2] (setting [4]) was below 50 nM each time.
As for `CC(C)OC(=O)OCOP(=O)(OCOC(=O)OC(C)C)OCOC(C)(C)C=C(C#N)C(=O)Nc1ccc(N2CC(N3CCN(c4ccc5c(c4)-c4nc(N6C(=O)OC[C@H]6C(F)F)cn4CCO5)CC3)C2)cc1` [Compound 344], the IC50 in test [1] (setting [3]) and in test [2] (setting [4]) was below 50 nM throughout.
In the case of `CC(C)(C=C(C#N)C(=O)Nc1ccc(N2CC(N3CCN(c4ccc5c(c4)-c4nc(N6C(=O)OC[C@H]6C(F)F)cn4CCO5)CC3)C2)c(F)c1)NC(=O)OC(C)(C)C` [Compound 345], the IC50 in test [1] (setting [3]) and in test [2] (setting [4]) was below 50 nM in each case.
For the compound `CC(=O)NC(C)(C)C=C(C#N)C(=O)Nc1ccc(N2CC(N3CCN(c4ccc5c(c4)-c4nc(N6C(=O)OC[C@H]6C(F)F)cn4CCO5)CC3)C2)c(F)c1` [Compound 347], the 50% inhibitory concentration (IC50) in test [1] (setting [3]) and in test [2] (setting [4]) was below 50 nM throughout.
In the case of `CC(=O)NC(C)(C)C=C(C#N)C(=O)Nc1ccc(N2CC(N3CCN(c4ccc5c(c4)-c4nc(N6C(=O)OC[C@H]6C(F)F)cn4CCO5)CC3)C2)nc1` [Compound 348], the IC50 in test [1] (setting [3]) and in test [2] (setting [4]) was below 50 nM in each case.
On to `CNC(C)(C)C=C(C#N)C(=O)Nc1ccc(N2CC(N3CCN(c4ccc5c(c4)-c4nc(N6C(=O)OC[C@H]6C(F)F)cn4CCO5)CC3)C2)c(Cl)c1` [Compound 350], for which the IC50 in test [1] (setting [3]) and in test [2] (setting [4]) was below 50 nM in each case.

These data come from patent US20260193268A1, “TRICYCLIC PI3Ka INHIBITOR, PREPARATION METHOD THEREFOR, AND PHARMACEUTICAL USE THEREOF” (WIGEN BIOMEDICINE TECHNOLOGY (SHANGHAI) CO., LTD., priority 2022, published 2026).
